Test results from PubChem BioAssay (NCI).
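Results reflect a 48-hour exposure of cells in 96-well plates to compound at five concentrations. The concentration for 50% growth inhibition is given as GI50. TGI: total growth inhibition.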

Tests used:
Assay in all cases: NCI anticancer screen, dose series, 48 h
COLO 205 colon = system: COLO 205 colon
OVCAR-5 ovarian = system: OVCAR-5 ovarian
OVCAR-3 ovarian = system: OVCAR-3 ovarian
SW-620 colon = system: SW-620 colon
RXF 393 renal = system: RXF 393 renal
SNB-75 CNS = system: SNB-75 CNS
SF-539 CNS = system: SF-539 CNS
786-0 renal = system: 786-0 renal
NCI-H522 lung = system: NCI-H522 lung
MALME-3M melanoma = system: MALME-3M melanoma
SK-MEL-2 melanoma = system: SK-MEL-2 melanoma
CAKI-1 renal = system: CAKI-1 renal
NCI/ADR-RES ovarian = system: NCI/ADR-RES ovarian
UACC-257 melanoma = system: UACC-257 melanoma
ACHN renal = system: ACHN renal
KM12 colon = system: KM12 colon
SNB-19 CNS = system: SNB-19 CNS
A498 renal = system: A498 renal
OVCAR-4 ovarian = system: OVCAR-4 ovarian
T-47D breast = system: T-47D breast
MDA-MB-231 breast = system: MDA-MB-231 breast
TK-10 renal = system: TK-10 renal
HCT-15 colon = system: HCT-15 colon
HT29 colon = system: HT29 colon
SF-268 CNS = system: SF-268 CNS
PC-3 prostate = system: PC-3 prostate
A549 NSCLC = system: A549 NSCLC
HCC-2998 colon = system: HCC-2998 colon
SK-OV-3 ovarian = system: SK-OV-3 ovarian
MCF7 breast = system: MCF7 breast
IGROV1 ovarian = system: IGROV1 ovarian
K-562 leukemia = system: K-562 leukemia
CCRF-CEM leukemia = system: CCRF-CEM leukemia
HOP-62 NSCLC = system: HOP-62 NSCLC
NCI-H226 lung = system: NCI-H226 lung
DU-145 prostate = system: DU-145 prostate
HL-60(TB) leukemia = system: HL-60(TB) leukemia
SR leukemia = system: SR leukemia
MOLT-4 leukemia = system: MOLT-4 leukemia
OVCAR-8 ovarian = system: OVCAR-8 ovarian
SN12C renal = system: SN12C renal
NCI-H23 lung = system: NCI-H23 lung
HS 578T breast = system: HS 578T breast
HCT-116 colon = system: HCT-116 colon
UO-31 renal = system: UO-31 renal
NCI-H460 lung = system: NCI-H460 lung
U251 CNS = system: U251 CNS
SF-295 CNS = system: SF-295 CNS
M14 melanoma = system: M14 melanoma
MDA-MB-435 = system: MDA-MB-435
BT-549 breast = system: BT-549 breast
LOX IMVI melanoma = system: LOX IMVI melanoma
SK-MEL-5 melanoma = system: SK-MEL-5 melanoma

Cc1nn2c(/C=C3/C(=O)Nc4cc(Cl)ccc43)c(-c3ccccc3)nc2s1
GI50 (COLO 205 colon): 74.4 µM
TGI (COLO 205 colon): > 100 µM
GI50 (OVCAR-5 ovarian): > 100 µM
TGI (OVCAR-5 ovarian): > 100 µM
GI50 (OVCAR-3 ovarian): 1.89 µM
TGI (OVCAR-3 ovarian): 3.68 µM
GI50 (SW-620 colon): 3 µM
TGI (SW-620 colon): > 100 µM
GI50 (RXF 393 renal): 2.27 µM
TGI (RXF 393 renal): 5.97 µM
GI50 (SNB-75 CNS): 1.6 µM
TGI (SNB-75 CNS): 8.44 µM
GI50 (SF-539 CNS): 1.71 µM
TGI (SF-539 CNS): 3.46 µM
GI50 (786-0 renal): 2.15 µM
TGI (786-0 renal): 4.37 µM
GI50 (NCI-H522 lung): 1.8 µM
TGI (NCI-H522 lung): 4.11 µM
GI50 (MALME-3M melanoma): 1.89 µM
TGI (MALME-3M melanoma): 3.91 µM
GI50 (SK-MEL-2 melanoma): 7.07 µM
TGI (SK-MEL-2 melanoma): 46.7 µM
GI50 (CAKI-1 renal): 1.87 µM
TGI (CAKI-1 renal): 4.38 µM
GI50 (NCI/ADR-RES ovarian): 3.54 µM
TGI (NCI/ADR-RES ovarian): > 100 µM
GI50 (UACC-257 melanoma): 2.65 µM
TGI (UACC-257 melanoma): 8.32 µM
GI50 (ACHN renal): 1.54 µM
TGI (ACHN renal): 3.08 µM
GI50 (KM12 colon): 59.1 µM
TGI (KM12 colon): > 100 µM
GI50 (SNB-19 CNS): 10.7 µM
TGI (SNB-19 CNS): > 100 µM
GI50 (A498 renal): 15.5 µM
TGI (A498 renal): 72 µM
GI50 (OVCAR-4 ovarian): 1.59 µM
TGI (OVCAR-4 ovarian): 3.39 µM
GI50 (T-47D breast): 1.75 µM
TGI (T-47D breast): 4.04 µM
GI50 (MDA-MB-231 breast): 1.99 µM
TGI (MDA-MB-231 breast): 5.62 µM
GI50 (TK-10 renal): 2.34 µM
TGI (TK-10 renal): 4.14 µM
GI50 (HCT-15 colon): 4.79 µM
TGI (HCT-15 colon): > 100 µM
GI50 (HT29 colon): 11.1 µM
TGI (HT29 colon): > 100 µM
GI50 (SF-268 CNS): 6.81 µM
TGI (SF-268 CNS): > 100 µM
GI50 (PC-3 prostate): 13.8 µM
TGI (PC-3 prostate): > 100 µM
GI50 (A549 NSCLC): 3.28 µM
TGI (A549 NSCLC): 14.9 µM
GI50 (HCC-2998 colon): > 100 µM
TGI (HCC-2998 colon): > 100 µM
GI50 (SK-OV-3 ovarian): 14.3 µM
TGI (SK-OV-3 ovarian): > 100 µM
GI50 (MCF7 breast): 5.84 µM
TGI (MCF7 breast): > 100 µM
GI50 (IGROV1 ovarian): 2.07 µM
TGI (IGROV1 ovarian): 4.62 µM
GI50 (K-562 leukemia): 4.27 µM
TGI (K-562 leukemia): > 100 µM
GI50 (CCRF-CEM leukemia): 4.35 µM
TGI (CCRF-CEM leukemia): > 100 µM
GI50 (HOP-62 NSCLC): 4.4 µM
TGI (HOP-62 NSCLC): 17.9 µM
GI50 (NCI-H226 lung): 4.56 µM
TGI (NCI-H226 lung): 63.7 µM
GI50 (DU-145 prostate): 4.02 µM
TGI (DU-145 prostate): 18.2 µM
GI50 (HL-60(TB) leukemia): > 100 µM
TGI (HL-60(TB) leukemia): > 100 µM
GI50 (SR leukemia): 3.09 µM
TGI (SR leukemia): > 100 µM
GI50 (MOLT-4 leukemia): 4.11 µM
TGI (MOLT-4 leukemia): > 100 µM
GI50 (OVCAR-8 ovarian): 2.89 µM
TGI (OVCAR-8 ovarian): > 100 µM
GI50 (SN12C renal): 2.84 µM
TGI (SN12C renal): 11.1 µM
GI50 (NCI-H23 lung): 3.68 µM
TGI (NCI-H23 lung): > 100 µM
GI50 (HS 578T breast): 3.52 µM
TGI (HS 578T breast): > 100 µM
GI50 (HCT-116 colon): 1.85 µM
TGI (HCT-116 colon): 3.46 µM
GI50 (UO-31 renal): 1.59 µM
TGI (UO-31 renal): 3.53 µM
GI50 (NCI-H460 lung): 3.72 µM
TGI (NCI-H460 lung): > 100 µM
GI50 (U251 CNS): 2.68 µM
TGI (U251 CNS): 8.5 µM
GI50 (SF-295 CNS): 11.1 µM
TGI (SF-295 CNS): 38.1 µM
GI50 (M14 melanoma): 6.54 µM
TGI (M14 melanoma): > 100 µM
GI50 (MDA-MB-435): 3.72 µM
TGI (MDA-MB-435): > 100 µM
GI50 (BT-549 breast): 6.63 µM
TGI (BT-549 breast): > 100 µM
GI50 (LOX IMVI melanoma): 2.41 µM
TGI (LOX IMVI melanoma): 6.02 µM
GI50 (SK-MEL-5 melanoma): 3.17 µM
TGI (SK-MEL-5 melanoma): > 100 µM
